ChEMBL document CHEMBL3045349, “A comparative study on the interference of two herbicides in wheat and italian ryegrass and on their antioxidant activities and detoxification rates” (J Agric Food Chem, 2011)

Assays:
[1] = system: Lolium multiflorum; experiment: Effect on photosynthetic activity in Lolium multiflorum (Italian ryegrass) shoots assessed as dark respiration rate measured by CO2 production compound administered at rate of 14 mf/flat measured 24 hr post treatment (reference value: -1.51 umol/m2/s); type: functional
[2] = system: Lolium multiflorum; experiment: Effect on photosynthetic activity in Lolium multiflorum (Italian ryegrass) shoots assessed as dark respiration rate measured by CO2 production compound administered at rate of 14 mf/flat measured 72 hr post treatment (reference value: -1.32 umol/m2/s); type: functional
[3] = system: Lolium multiflorum; experiment: Effect on antioxidant enzyme system in Lolium multiflorum (Italian ryegrass) shoots assessed as catalase activity per mg protein compound administered at rate of 14 mf/flat measured 72 hr post treatment (reference value: 0.12 nmol/s per mg protein); type: functional
[4] = system: Shoot; experiment: Drug level in Lolium multiflorum (Italian ryegrass) shoots compound administered at rate of 14 mf/flat measured 72 hr post treatment by HPLC; type: ADME
[5] = system: Lolium multiflorum; experiment: Effect on photosynthetic activity in Lolium multiflorum (Italian ryegrass) shoots assessed as leaf net photosynthesis rate measured by CO2 production compound administered at rate of 14 mf/flat measured 48 hr post treatment (reference value: 4.89 umol/m2/s); type: functional
[6] = system: Lolium multiflorum; experiment: Effect on antioxidant enzyme system in Lolium multiflorum (Italian ryegrass) shoots assessed as catalase activity per mg protein compound administered at rate of 14 mf/flat measured 24 hr post treatment (reference value: 0.13 nmol/s per mg protein); type: functional
[7] = system: Shoot; experiment: Drug level in Triticum aestivum (wheat) shoots compound administered at rate of 14 mf/flat measured 72 hr post treatment by HPLC; type: ADME
[8] = system: Triticum aestivum; experiment: Effect on antioxidant enzyme system in Triticum aestivum (wheat) shoots assessed as catalase activity per mg protein compound administered at rate of 14 mf/flat measured 24 hr post treatment (reference value: 0.1 nmol/s per mg protein); type: functional
[9] = system: Triticum aestivum; experiment: Increase in antioxidant enzyme system in Triticum aestivum (wheat) shoots assessed as increase in dehydroascorbate reductase activity compound administered at rate of 14 mf/flat measured 48 hr post treatment; type: functional
[10] = system: Lolium multiflorum; experiment: Effect on antioxidant enzyme system in Lolium multiflorum (Italian ryegrass) shoots assessed as glutathione reductase activity per mg protein compound administered at rate of 14 mf/flat measured 24 hr post treatment (reference value: 1.1 nmol/s per mg protein); type: functional
[11] = system: Triticum aestivum; experiment: Effect on photosynthetic activity in Triticum aestivum (wheat) shoots assessed as leaf net photosynthesis rate measured by CO2 production compound administered at rate of 14 mf/flat measured 24 hr post treatment (reference value: 1.35 umol/m2/s); type: functional
[12] = system: Shoot; experiment: Drug level in Triticum aestivum (wheat) shoots compound administered at rate of 14 mf/flat measured 48 hr post treatment by HPLC; type: ADME
[13] = system: Lolium multiflorum; experiment: Increase in glutathione S-transferase activity in Lolium multiflorum (Italian ryegrass) compound administered at rate of 14 mf/flat measured 72 hr post treatment; type: functional
[14] = system: Lolium multiflorum; experiment: Effect on MDA content in Lolium multiflorum (Italian ryegrass) shoots compound administered at rate of 14 mf/flat measured 48 hr post treatment (reference value: 0.65 uM/L); type: functional
[15] = system: Triticum aestivum; experiment: Effect on MDA content in Triticum aestivum (wheat) shoots compound administered at rate of 14 mf/flat measured 48 hr post treatment (reference value: 0.053 uM/L); type: functional
[16] = system: Triticum aestivum; experiment: Drug level in Triticum aestivum (wheat) compound administered at rate of 14 mf/flat measured 24 hr post treatment by HPLC; type: ADME, organism-based; conditions: in vivo
[17] = system: Triticum aestivum; experiment: Effect on antioxidant enzyme system in Triticum aestivum (wheat) shoots assessed as dehydroascorbate reductase activity per mg protein compound administered at rate of 14 mf/flat measured 48 hr post treatment (reference value: 4.6 nmol/s per mg protein); type: functional
[18] = system: Triticum aestivum; experiment: Reduction in glutathione S-transferase activity in Triticum aestivum (wheat) shoots compound administered at rate of 14 mf/flat measured 24 hr post treatment; type: functional; set-up: scale not given: the % may be the effect or the level left
[19] = system: Shoot; experiment: Drug level in Lolium multiflorum (Italian ryegrass) shoots compound administered at rate of 14 mf/flat measured 24 hr post treatment by HPLC; type: ADME
[20] = system: Triticum aestivum; experiment: Effect on photosynthetic activity in Triticum aestivum (wheat) shoots assessed as leaf net photosynthesis rate measured by CO2 production compound administered at rate of 14 mf/flat measured 48 hr post treatment (reference value: 1.92 umol/m2/s); type: functional
[21] = system: Lolium multiflorum; experiment: Effect on antioxidant enzyme system in Lolium multiflorum (Italian ryegrass) shoots assessed as ascorbate peroxidase activity per mg protein compound administered at rate of 14 mf/flat measured 24 hr post treatment (reference value: 12.5 nmol/s per mg protein); type: functional
[22] = system: Lolium multiflorum; experiment: Effect on antioxidant enzyme system in Lolium multiflorum (Italian ryegrass) shoots assessed as ascorbate peroxidase activity per mg protein compound administered at rate of 14 mf/flat measured 48 hr post treatment (reference value: 11.6 nmol/s per mg protein); type: functional
[23] = system: Lolium multiflorum; experiment: Effect on antioxidant enzyme system in Lolium multiflorum (Italian ryegrass) shoots assessed as dehydroascorbate reductase activity per mg protein compound administered at rate of 14 mf/flat measured 48 hr post treatment (reference value: 3.7 nmol/s per mg protein); type: functional
[24] = system: Triticum aestivum; experiment: Effect on antioxidant enzyme system in Triticum aestivum (wheat) shoots assessed as dehydroascorbate reductase activity per mg protein compound administered at rate of 14 mf/flat measured 24 hr post treatment (reference value: 4.6 nmol/s per mg protein); type: functional
[25] = system: Lolium multiflorum; experiment: Increase in glutathione S-transferase activity in Lolium multiflorum (Italian ryegrass) compound administered at rate of 14 mf/flat measured 48 hr post treatment; type: functional
[26] = system: Lolium multiflorum; experiment: Drug level in Lolium multiflorum (Italian ryegrass) compound administered at rate of 14 mf/flat measured 24 hr post treatment by HPLC; type: ADME, organism-based; conditions: in vivo
[27] = system: Triticum aestivum; experiment: Effect on antioxidant enzyme system in Triticum aestivum (wheat) shoots assessed as ascorbate peroxidase activity per mg protein compound administered at rate of 14 mf/flat measured 48 hr post treatment (reference value: 18.4 nmol/s per mg protein); type: functional
[28] = system: Lolium multiflorum; experiment: Increase in MDA content in Lolium multiflorum (Italian ryegrass) shoots compound administered at rate of 14 mf/flat measured 72 hr post treatment; type: functional
[29] = system: Lolium multiflorum; experiment: Effect on antioxidant enzyme system in Lolium multiflorum (Italian ryegrass) shoots assessed as glutathione reductase activity per mg protein compound administered at rate of 14 mf/flat measured 48 hr post treatment (reference value: 1.1 nmol/s per mg protein); type: functional
[30] = system: Triticum aestivum; experiment: Effect on photosynthetic activity in Triticum aestivum (wheat) shoots assessed as dark respiration rate measured by CO2 production compound administered at rate of 14 mf/flat measured 24 hr post treatment (reference value: -1.35 umol/m2/s); type: functional
[31] = system: Lolium multiflorum; experiment: Increase in antioxidant enzyme system in Lolium multiflorum (Italian ryegrass) shoots assessed as increase in ascorbate peroxidase activity compound administered at rate of 14 mf/flat measured 24 hr post treatment; type: functional
[32] = system: Lolium multiflorum; experiment: Increase in glutathione S-transferase activity in Lolium multiflorum (Italian ryegrass) compound administered at rate of 14 mf/flat measured 24 hr post treatment; type: functional
[33] = system: Triticum aestivum; experiment: Effect on antioxidant enzyme system in Triticum aestivum (wheat) shoots assessed as glutathione reductase activity per mg protein compound administered at rate of 14 mf/flat measured 72 hr post treatment (reference value: 1.1 nmol/s per mg protein); type: functional

CCNc1nc(Cl)nc(NC(C)C)n1 [ATRAZINE] gave an Activity [1] of -1.32 micromol/m2/s, an Activity [2] of -1.67 micromol/m2/s and an Activity [3] of 0.13 nmol/s/mg protein. It also gave a Drug uptake [4] of 4.52 ppm, an Activity [5] of -1.04 micromol/m2/s and an Activity [6] of 0.13 nmol/s. The Drug uptake [7] was 1.94 ppm, the Activity [8] was 0.1 nmol/s/mg protein and the Activity [9] was 15%. It also gave an Activity [10] of 1.4 nmol/s/mg protein, an Activity [11] of -0.52 micromol/m2/s and a Drug uptake [12] of 5.67 ppm. The Activity [13] was 24%, the Activity [14] was 0.85 µM and the Activity [15] was 0.53 µM. It also gave a Drug uptake [16] of 2.26 ppm, an Activity [17] of 5.3 nmol/s/mg protein and an Activity [18] of 37%. It also gave a Drug uptake [19] of 6 ppm, an Activity [20] of 0.22 micromol/m2/s and an Activity [21] of 15 nmol/s/mg protein. It also gave an Activity [22] of 12.2 nmol/s/mg protein, an Activity [23] of 3.6 nmol/s/mg protein and an Activity [24] of 5.5 nmol/s/mg protein. It also gave an Activity [25] of 103%, a Drug uptake [26] of 4.75 ppm and an Activity [27] of 23.5 nmol/s/mg protein. For the same molecule, the Activity [28] was 10%, the Activity [29] was 1 nmol/s/mg protein and the Activity [30] was -0.51 micromol/m2/s. It also gave an Activity [31] of 20%, an Activity [32] of 35% and an Activity [33] of 1 nmol/s/mg protein.
O=[N+]([O-])c1ccc(Oc2ccc(C(F)(F)F)cc2[N+](=O)[O-])cc1 [FLUORODIFEN] showed an Activity [1] of -1.42 micromol/m2/s, an Activity [2] of -1.06 micromol/m2/s and an Activity [3] of 0.13 nmol/s/mg protein. It also gave a Drug uptake [4] of 0.46 ppm, an Activity [5] of 4.42 micromol/m2/s and an Activity [6] of 0.11 nmol/s. It also gave a Drug uptake [7] of 0.2 ppm, an Activity [8] of 0.11 nmol/s/mg protein and an Activity [9] of 11%. For the same molecule, the Activity [10] was 1.9 nmol/s/mg protein, the Activity [11] was 1.15 micromol/m2/s and the Drug uptake [12] was 0.27 ppm. The Activity [13] was 35%, the Activity [14] was 0.74 µM and the Activity [15] was 0.05 µM. It also gave a Drug uptake [16] of 0.44 ppm, an Activity [17] of 5.1 nmol/s/mg protein and an Activity [18] of 15%. It also gave a Drug uptake [19] of 1.4 ppm, an Activity [20] of 2.13 micromol/m2/s and an Activity [21] of 13.9 nmol/s/mg protein. For the same molecule, the Activity [22] was 14 nmol/s/mg protein, the Activity [23] was 3.7 nmol/s/mg protein and the Activity [24] was 5 nmol/s/mg protein. It also gave an Activity [25] of 371%, a Drug uptake [26] of 0.72 ppm and an Activity [27] of 20.2 nmol/s/mg protein. It also gave an Activity [28] of 10%, an Activity [29] of 1 nmol/s/mg protein and an Activity [30] of -0.82 micromol/m2/s. For the same molecule, the Activity [31] was 11%, the Activity [32] was 97% and the Activity [33] was 1 nmol/s/mg protein.
